According to patent publication US12318393B2, “Modulators of orphan nuclear receptors for NASH and other metabolic disorders” (Emory University, priority 2018, dated 2025):

Test system: C57BL/6 mice fed with HFD
Test: Multi-parameter metabolic assessment (metabolic cages) in HFD-fed C57BL/6 mice
Type: in vivo
Conditions: 15 mg/kg 3 times a week, after 2 weeks, 24 hr period, vs saline
Description: Metabolic and activity profiles of the mice were measured, by using the Promethion High-Definition Behavioral Phenotyping System (Sable Instruments, Inc., Las Vegas, NV, USA), which is a multi-parameter assessment incorporating sub-systems for open-circuit indirect calorimetry, feeding, water intake, activity, running wheel and body mass measurements in a conventional live-in home cage that minimizes stress. Data acquisition and instrument control were performed using the MetaScreen software version 2.2.18.0, and the obtained raw data were processed using ExpeData version 1.8.4 using an analysis script detailing all aspects of data transformation. […] Respiratory gases were measured by using the GA-3 gas analyzer (Sable Systems Inc., Las Vegas, NV, USA) using a pull-mode, negative-pressure system. Air flow was measured and controlled by the FR-8 (Sable Systems Inc., Las Vegas, NV, USA), with a set flow rate of 2000 mL/min. Water vapor was continuously measured and its dilution effect on 02 and CO2 were mathematically compensated. Effective mass was calculated by ANCOVA analysis. Respiratory quotient (RQ) was calculated as the ratio of VCO2/VO2. Total energy expenditure (TEE) was calculated as VO2×(3.815+1.232×RQ), normalized to effective body mass, and expressed as kcal/h/kgeff.Mass. […]

In the case of `O=C1Nc2cc(C(=O)N3CCC(Cc4ccccc4)CC3)ccc2Nc2ccccc21` [Compound 1], the fat oxidation is reported as “increased” and the “total energy expenditure (TEE)” value is reported as “increased”.
